Data: patent publication US20050197350A1, “Novel quinoline, tetrahydroquinazoline, and pyrimidine derivatives and methods of treatment related to the use thereof” (TAISHO PHARMACEUTICAL CO., LTD., priority 2003, published 2005)

tested on: MCH receptors; assay: MCH receptor activity class (method not given); conditions: class by percent of control at 10^-7 M or IC50

Row | Structure (SMILES) | class
1 | CN(C)c1ccnc(N[C@H]2CC[C@@H](NC(=O)c3cccc([N+](=O)[O-])c3)CC2)n1 [compound 262, N-(cis-4-{[4-(dimethylamino)pyrimidin-2-yl]amino}cyclohexyl)-3-nitrobenzamide] | 1 (Class 1: The value of percent of control at 10^−7 M was less than 40% or the value of IC50 was less than 50 nM.)
2 | CN(C)c1ccnc(N[C@H]2CC[C@@H](NC(=O)Cc3ccccc3)CC2)n1 [compound 263] | 3 (Class 3 The value of percent of control at 10^−7 M was more than 60% or the value of IC50 was more than 200 nM.)
3 | CN(C)c1ccnc(N[C@H]2CC[C@@H](NC(=O)C3C[C@H]3c3ccccc3)CC2)n1 (stereo partly drawn) [compound 264] | 3 (Class 3 The value of percent of control at 10^−7 M was more than 60% or the value of IC50 was more than 200 nM.)
4 | CN(C)c1ccnc(N[C@H]2CC[C@@H](NC(=O)c3ccc4c(c3)OCO4)CC2)n1 [compound 265] | 3 (Class 3 The value of percent of control at 10^−7 M was more than 60% or the value of IC50 was more than 200 nM.)
5 | Cc1cccc(C(=O)N[C@H]2CC[C@@H](Nc3nccc(N(C)C)n3)CC2)c1 [compound 268, N-(cis-4-{[4-(dimethylamino)pyrimidin-2-yl]amino}cyclohexyl)-3-methylbenzamide] | 2 (Class 2: The value of percent of control at 10^−7 M was from 40% to 60% or the value of IC′50 was from 50 nM to 200 nM.)
6 | Cc1ccc(C(=O)N[C@H]2CC[C@@H](Nc3nccc(N(C)C)n3)CC2)cc1 [compound 269] | 3 (Class 3 The value of percent of control at 10^−7 M was more than 60% or the value of IC50 was more than 200 nM.)
7 | CN(C)c1ccnc(N[C@H]2CC[C@@H](NC(=O)c3cccs3)CC2)n1 [compound 270] | 3 (Class 3 The value of percent of control at 10^−7 M was more than 60% or the value of IC50 was more than 200 nM.)
8 | CN(C)c1ccnc(N[C@H]2CC[C@@H](NC(=O)Cc3cccs3)CC2)n1 [compound 271] | 3 (Class 3 The value of percent of control at 10^−7 M was more than 60% or the value of IC50 was more than 200 nM.)
9 | CN(C)c1ccnc(N[C@H]2CC[C@@H](NC(=O)c3cccc(OC(F)(F)F)c3)CC2)n1 [compound 272, N-(cis-4-{[4-(dimethylamino)pyrimidin-2-yl]amino}cyclohexyl)-3-(trifluoromethoxy)benzamide] | 1 (Class 1: The value of percent of control at 10^−7 M was less than 40% or the value of IC50 was less than 50 nM.)
10 | CN(C)c1ccnc(NC2CCC(NC(=O)OCc3ccccc3)CC2)n1 (stereo not drawn) [compound 273] | 3 (Class 3 The value of percent of control at 10^−7 M was more than 60% or the value of IC50 was more than 200 nM.)
11 | CN(C)c1ccnc(NC2CCC(NC(=O)OCc3ccc([N+](=O)[O-])cc3)CC2)n1 (stereo not drawn) [compound 274] | 3 (Class 3 The value of percent of control at 10^−7 M was more than 60% or the value of IC50 was more than 200 nM.)
12 | Cc1cc(C(=O)N[C@H]2CC[C@@H](Nc3nccc(N(C)C)n3)CC2)ccc1Br [compound 275, 4-bromo-N-(cis-4-{[4-(dimethylamino)pyrimidin-2-yl]amino}cyclohexyl)-3-methylbenzamide] | 1 (Class 1: The value of percent of control at 10^−7 M was less than 40% or the value of IC50 was less than 50 nM.)
13 | CN(C)c1ccnc(N[C@H]2CC[C@@H](NC(=O)c3cccc(I)c3)CC2)n1 [compound 276, N-(cis-4-{[4-(dimethylamino)pyrimidin-2-yl]amino}cyclohexyl)-3-iodobenzamide] | 1 (Class 1: The value of percent of control at 10^−7 M was less than 40% or the value of IC50 was less than 50 nM.)
14 | CN(C)c1ccnc(N[C@H]2CC[C@@H](NC(=O)c3cccc(Cl)c3F)CC2)n1 [compound 277] | 3 (Class 3 The value of percent of control at 10^−7 M was more than 60% or the value of IC50 was more than 200 nM.)
15 | Cc1ccc(C(=O)N[C@H]2CC[C@@H](Nc3nccc(N(C)C)n3)CC2)c(F)c1F [compound 278] | 3 (Class 3 The value of percent of control at 10^−7 M was more than 60% or the value of IC50 was more than 200 nM.)
16 | CN(C)c1ccnc(N[C@H]2CC[C@@H](NC(=O)c3ccc(F)cc3Cl)CC2)n1 [compound 279] | 3 (Class 3 The value of percent of control at 10^−7 M was more than 60% or the value of IC50 was more than 200 nM.)
17 | CN(C)c1ccnc(N[C@H]2CC[C@@H](NC(=O)c3ccc(F)c(Cl)c3F)CC2)n1 [compound 280] | 3 (Class 3 The value of percent of control at 10^−7 M was more than 60% or the value of IC50 was more than 200 nM.)
18 | CN(C)c1ccnc(N[C@H]2CC[C@@H](NC(=O)CSc3ccccc3)CC2)n1 [compound 281] | 3 (Class 3 The value of percent of control at 10^−7 M was more than 60% or the value of IC50 was more than 200 nM.)
19 | CN(C)c1ccnc(N[C@H]2CC[C@@H](NC(=O)c3cccc(C(F)(F)F)c3F)CC2)n1 [compound 282] | 3 (Class 3 The value of percent of control at 10^−7 M was more than 60% or the value of IC50 was more than 200 nM.)
20 | CN(C)c1ccnc(N[C@H]2CC[C@@H](NC(=O)c3cc(C(F)(F)F)ccc3F)CC2)n1 [compound 283] | 3 (Class 3 The value of percent of control at 10^−7 M was more than 60% or the value of IC50 was more than 200 nM.)

Row | Structure (SMILES) | class
21 | COc1cccc(CC(=O)N[C@H]2CC[C@@H](Nc3nccc(N(C)C)n3)CC2)c1 [compound 285] | 3 (Class 3 The value of percent of control at 10^−7 M was more than 60% or the value of IC50 was more than 200 nM.)
22 | CN(C)c1ccnc(N[C@H]2CC[C@@H](NC(=O)Cc3ccc(F)cc3)CC2)n1 [compound 286] | 3 (Class 3 The value of percent of control at 10^−7 M was more than 60% or the value of IC50 was more than 200 nM.)
23 | COc1ccc(CC(=O)N[C@H]2CC[C@@H](Nc3nccc(N(C)C)n3)CC2)cc1 [compound 287] | 3 (Class 3 The value of percent of control at 10^−7 M was more than 60% or the value of IC50 was more than 200 nM.)
24 | Cc1cc(C(=O)N[C@H]2CC[C@@H](Nc3nccc(N(C)C)n3)CC2)c(C(F)(F)F)o1 [compound 288] | 3 (Class 3 The value of percent of control at 10^−7 M was more than 60% or the value of IC50 was more than 200 nM.)
25 | Cc1cc(C(=O)N[C@H]2CC[C@@H](Nc3nccc(N(C)C)n3)CC2)c(C)o1 [compound 289, N-(cis-4-{[4-(dimethylamino)pyrimidin-2-yl]amino}cyclohexyl)-2,5-dimethyl-3-furamide] | 2 (Class 2: The value of percent of control at 10^−7 M was from 40% to 60% or the value of IC′50 was from 50 nM to 200 nM.)
26 | CCOc1ccccc1C(=O)N[C@H]1CC[C@@H](Nc2nccc(N(C)C)n2)CC1 [compound 290] | 3 (Class 3 The value of percent of control at 10^−7 M was more than 60% or the value of IC50 was more than 200 nM.)
27 | CN(C)c1ccnc(N[C@H]2CC[C@@H](NC(=O)c3ccc(F)c(Cl)c3)CC2)n1 [compound 291, 3-chloro-N-(cis-4-{[4-(dimethylamino)pyrimidin-2-yl]amino}cyclohexyl)-4-fluorobenzamide] | 1 (Class 1: The value of percent of control at 10^−7 M was less than 40% or the value of IC50 was less than 50 nM.)
28 | Cc1ccc(C(=O)N[C@H]2CC[C@@H](Nc3nccc(N(C)C)n3)CC2)cc1F [compound 292] | 3 (Class 3 The value of percent of control at 10^−7 M was more than 60% or the value of IC50 was more than 200 nM.)
29 | CN(C)c1ccnc(N[C@H]2CC[C@@H](NC(=O)CC3CCCC3)CC2)n1 [compound 293] | 3 (Class 3 The value of percent of control at 10^−7 M was more than 60% or the value of IC50 was more than 200 nM.)
30 | COc1cc(OC)cc(C(=O)N[C@H]2CC[C@@H](Nc3nccc(N(C)C)n3)CC2)c1 [compound 294, N-(cis-4-{[4-(dimethylamino)pyrimidin-2-yl]amino}cyclohexyl)-3,5-dimethoxybenzamide] | 1 (Class 1: The value of percent of control at 10^−7 M was less than 40% or the value of IC50 was less than 50 nM.)
31 | CN(C)c1ccnc(N[C@H]2CC[C@@H](NC(=O)c3ccc(C#N)cc3)CC2)n1 [compound 295] | 3 (Class 3 The value of percent of control at 10^−7 M was more than 60% or the value of IC50 was more than 200 nM.)
32 | CN(C)c1ccnc(N[C@H]2CC[C@@H](NC(=O)c3cc(C(F)(F)F)cc(C(F)(F)F)c3)CC2)n1 [compound 296, N-(cis-4-{[4-(dimethylamino)pyrimidin-2-yl]amino}cyclohexyl)-3,5-bis(trifluoromethyl)benzamide] | 1 (Class 1: The value of percent of control at 10^−7 M was less than 40% or the value of IC50 was less than 50 nM.)
33 | CN(C)c1ccnc(N[C@H]2CC[C@@H](NC(=O)/C=C/c3ccc([N+](=O)[O-])cc3)CC2)n1 [compound 297] | 3 (Class 3 The value of percent of control at 10^−7 M was more than 60% or the value of IC50 was more than 200 nM.)
34 | CN(C)c1ccnc(N[C@H]2CC[C@@H](NC(=O)Cc3ccccc3Br)CC2)n1 [compound 298] | 3 (Class 3 The value of percent of control at 10^−7 M was more than 60% or the value of IC50 was more than 200 nM.)
35 | Cc1cc(C(=O)N[C@H]2CC[C@@H](Nc3nccc(N(C)C)n3)CC2)ccc1F [compound 299, N-(cis-4-{[4-(dimethylamino)pyrimidin-2-yl]amino}cyclohexyl)-4-fluoro-3-methylbenzamide] | 1 (Class 1: The value of percent of control at 10^−7 M was less than 40% or the value of IC50 was less than 50 nM.)
36 | CN(C)c1ccnc(N[C@H]2CC[C@@H](NC(=O)c3ccccc3SC(F)F)CC2)n1 [compound 300] | 3 (Class 3 The value of percent of control at 10^−7 M was more than 60% or the value of IC50 was more than 200 nM.)
37 | CN(C)c1ccnc(N[C@H]2CC[C@@H](NC(=O)c3cc(Cl)sc3Cl)CC2)n1 [compound 301] | 2 (Class 2: The value of percent of control at 10^−7 M was from 40% to 60% or the value of IC′50 was from 50 nM to 200 nM.)
38 | CCCSc1ncccc1C(=O)N[C@H]1CC[C@@H](Nc2nccc(N(C)C)n2)CC1 [compound 302] | 3 (Class 3 The value of percent of control at 10^−7 M was more than 60% or the value of IC50 was more than 200 nM.)
39 | CN(C)c1ccnc(N[C@H]2CC[C@@H](NC(=O)c3cc(C(C)(C)C)nn3Cc3ccccc3)CC2)n1 [compound 303] | 2 (Class 2: The value of percent of control at 10^−7 M was from 40% to 60% or the value of IC′50 was from 50 nM to 200 nM.)
